According to US20110160121A1, “UNACYLATED GHRELIN AND ANALOGS AS THERAPEUTIC AGENTS FOR VASCULAR REMODELING IN DIABETIC PATIENTS AND TREATMENT OF CARDIOVASCULAR DISEASE” (ALIZE PHARMA SAS, priority 2008, published 2011):
pKd: −log10 of the molar value. Where no end group is shown, it is not given here.

What was measured:
CAC [1] = assay: Detection of ROS in CAC (DCF-DA assay, FACS); type: cell-based, human
Experimental: First, cell-cycle progression in response to UAG and AG was evaluated. […] To investigate whether this effect relies on inhibition of baseline ROS production, DCF-DA assay was performed. […] H2O2 was used as positive control. AGE-mediated damage signals mainly rely on ROS production (Ref. 29). […] Detection of ROS—DCF-DA (0.5 μM final concentration) was added to CAC in the indicated culture conditions. At the indicated times, the cells were subjected to FACS analysis and processed as previously described (Ref. 22). H2O2 was used as positive control.

p53, p21, pRb = assay: Western blot of p53, p21 and phospho-Rb in cultured CAC; type: cell-based, human; settings: induced by AGE in cultured CAC; FIG. 2B
Source text: To this end, the effect of AGE treatment, alone or in combination with UAG, was first evaluated on SA-β-gal activity. […] In addition, AGE-induced p53 accumulation and senescent like-growth arrest were prevented by silencing p53 (FIG. 2C).
Western Blot Analysis—CAC from healthy donors cultured in the presence of UAG, in combination or not with AGE, and CAC recovered from diabetic patients treated with saline or UAG were lysed. Protein concentration was detected as previously described (Ref. 24). 50 μg of proteins were separated on SDS-polyacrylamide gels and transferred to nitrocellulose membranes. Reaction with anti-p53, anti p21 and anti-phospho-Rb antibodies and detection with an enhanced chemiluminescence detection system (Amersham Biosciences) were performed as described previously (Ref. 20).

CAC [2] = assay: Expansion (S phase) of CAC recovered from treated patients, cultured with IL-3; type: in vivo, human; settings: cells recovered from treated diabetic patients; FIG. 3C
Experimental: To confirm their vascular features, the cells recovered from patients and controls were cultured with IL-3; which is able to induce expansion and arterial morphogenesis of CD45^+ cells derived from both peripheral blood and BM (Ref. 28).
Flow Cytometry—To analyze CAC cell-cycle progression, cells recovered from diabetic, healthy subjects, NOD/SCID, ob/ob and wt mice, were cultured in EBM-2 supplemented with IL-3 (10 ng/ml), FACS analysis was performed as previously described (Ref. 20). Cell surface molecules were evaluated by flow cytometry as previously described (Ref. 24). Frequency of marker-positive cells is expressed as mean±standard deviation (SD).

CAC [3] = assay: Matrigel-plug assay: de novo vessel formation by CAC from diabetic patients in SCID mice; type: in vivo, human
Experimental: To evaluate whether CAC recovered from UAG-treated diabetic patients rescue their vasculogenic capability, de novo vessel formation was assayed in vivo. To this end, Matrigel plugs containing IL-3 and CSFE-labelled CAC, recovered from untreated or UAG-treated patients, were injected into SCID mice, 15 days after injection Matrigel plugs were recovered and analyzed by immunohistochemistry. […] On the contrary no functional vessels could be detected when CAC recovered from untreated patients were used (FIG. 4E, panel a (left)). To exclude the possibility that the neo-vessels derived from vasculogenic cells of host origin, immunofluorescence assay was performed using the anti-human HLA Class I and the anti-mouse MHC II antibodies.
Matrigel-plug assay—For murine angiogenesis assay, untreated or UAG-treated CAC, obtained from type 2 diabetic patients, were counted and resuspended in DMEM (4×10^6 in 250 μL DMEM). […]
Immunohistochemistry and immunofluorescence—For immunohistochemistry, sections from paraffin-embedded blocks of Matrigel plugs were collected onto poly-lysine-coated slides. […] The percentage of positive cells was counted in 4 non-sequential sections for each experiment at ×40 magnification. […] The number of MHC II or HLA I positive vessels was determined by counting 10 randomly selected fields in three different samples.

CAC membranes [4] = assay: Competition binding with [125I-Tyr4]-UAG on CAC membranes; design: species or system human; settings: 100 nM competitor, 0.25 nM radioligand; FIG. 5A
Source text: The specific binding of [^125I-Tyr^4]-UAG (calculated as difference between binding in the absence, control, and in the presence of UAG) represented about 75% of the control value (P<0.001) and was detected either on fresh (0.25 and 0.26 fmol) or frozen-thawed (0.20 and 0.33 fmol) CAC membranes from two different cell preparations.

CAC membranes [5] = assay: Saturation binding experiment on CAC membranes (Scatchard analysis); design: species or system human
cardiomyocytes = settings: Ref. 8; cited from earlier work
human arteries = settings: Ref. 35; cited from earlier work
[6] = Scatchard analysis, CAC membranes

1-NH2Gly-Ser-Ser-Phe-Leu-Ser-Pro-Glu-His-Gln-Arg-Val-Gln-Gln-Arg-Lys-Glu-Ser-Lys-Lys-Pro-Pro-Ala-Lys-Leu-Gln-Pro-Arg-28 (H-GSSFLSPEHQRVQQRKESKKPPAKLQPR; ends and bridges not checked; listed as Homo sapiens) [UAG]
level of ROS production in AGE-cultured cells (CAC [1]; AGE-cultured CAC, FIG. 1C, 1F): the level of ROS production in AGE-cultured cells was reduced | intracellular ROS production in diabetic-recovered cells (CAC [1]; CAC isolated from type 2 diabetic patients, treated in vitro, FIG. 1D): reduced intracellular ROS production | baseline level of ROS production (CAC [1]; CAC, compared to untreated cells, FIG. 1B, 1E): drastically reduces the baseline level of ROS production | p53 accumulation, p21 expression and phosphorylation of Rb (p53, p21, pRb): prevented p53 accumulation, p21 expression and phosphorylation of Rb induced by AGE | cell expansion (cells in S phase) with IL-3 (CAC [2]): underwent cell expansion | de novo formation of functional vessels (CAC [3]; CSFE-labelled CAC from UAG-treated diabetic patients, Matrigel plugs with IL-3 in SCID mice, 15 days, FIG. 4E): formed functional vessels | origin of vessels (human HLA Class I vs mouse MHC II) (CAC [3]; Matrigel plugs, immunofluorescence, FIG. 4F): majority of vessels are lined by human HLA Class I positive cells | inhibition of binding of [125I-Tyr4]-UAG to CAC membranes (CAC membranes [4]): inhibited | radioligand concentration at maximum specific binding (saturable) (CAC membranes [5]; CAC membranes, FIG. 5B): 2 nM | Bmax (CAC membranes [5]; [6]): 10.7 fmol/mg membrane protein | Hill coefficient (CAC membranes [5]; [6]): ~1 | pKd (CAC membranes [5]; Scatchard analysis, single class of binding sites on CAC): 9.32 | inhibition of experimentally-induced cell death (cardiomyocytes): inhibit experimentally-induced cell death | vasodilator action (human arteries): have vasodilator actions in human arteries
